Assay results as given in patent publication US8673578B2, “Methods of identifying antagonists of the hTAS2R46 bitter taste receptor” (Deutsches Institut für Ernahrungsforschung Potsdam-Rehbrücke, priority 2009, dated 2014).

Legend:
other hTAS2 receptors = assay: calcium imaging (FLIPR), activation of hTAS2R-transfected HEK293T-Gα16gust44 cells; assay type: cell-based, human; conditions: 100 μM test substance, bath application
From the text: (§1) Human TAS2R cDNAs were cloned into pcDNA5/FRT (Invitrogen, San Diego, Calif.). For adequate plasma membrane targeting, receptor cDNA was fused to the aminoterminal sequence of the rat somatostatin type 3 receptor at the aminoterminus of the recombinant protein (Bufe, B., T. Hofmann, et al. (2002) Nat Genet. 32(3): 397-401). For immunological detection, the Herpes simplex Glycoprotein D epitope was supplemented at the carboxyterminus of the recombinant protein (Bufe et al., supra). Receptor constructs were transiently transfected into HEK293T cells stably expressing the chimeric G protein subunit Gα16gust44 (Ueda, T., S. Ugawa, et al. (2003) J Neurosci 23(19): 7376-80) using Lipofectamine 2000 (Invitrogen, San Diego, Calif.) in 96-well plates.
Calcium Imaging experiments were performed 24 h after transfection using a Fluorometric Imaging Plate Reader (FLIPR, Molecular Devices, Munich, Germany) as previously described (Bufe et al., supra). Taste active compounds were ordered from Sigma (Sigma-Aldrich, Taufkirchen, Germany). Absinthin, 3β hydroxy dihydro costunolide and 3β hydroxy pelenolide were kindly provided by Giovanni Appendino (Novara, Italy). […] Fluorescence signals after application of test substances were corrected for and normalized to background fluorescence (ΔF/F═(F−F0)/F0), and baseline noise was subtracted. […]

hTAS2R7 = molecular target: T1, hTAS2R7 (Homo sapiens, UniProt Q9NYW3); assay: calcium imaging (FLIPR), effect on agonist-dependent hTAS2R activation; assay type: cell-based; conditions: 100 μM test substance; agonist quinine sulfate 10 μM; agonist alone = 100%
T1 construct: expressed in transfected cells; host or cells: HEK293T cells stably expressing chimeric Gα16gust44, transient transfection
T1 sequence (Q9NYW3 1-318): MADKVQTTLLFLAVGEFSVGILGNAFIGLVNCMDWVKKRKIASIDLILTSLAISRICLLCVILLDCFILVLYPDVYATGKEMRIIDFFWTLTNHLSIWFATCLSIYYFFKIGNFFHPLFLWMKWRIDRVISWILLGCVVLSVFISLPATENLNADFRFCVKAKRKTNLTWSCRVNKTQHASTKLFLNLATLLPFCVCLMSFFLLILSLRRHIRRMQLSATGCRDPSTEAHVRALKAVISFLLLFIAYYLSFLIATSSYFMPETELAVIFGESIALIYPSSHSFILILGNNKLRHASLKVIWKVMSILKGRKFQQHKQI
From the text: as §1
(§2) Calcium Imaging experiments were performed 24 h after transfection using a Fluorometric Imaging Plate Reader (FLIPR, Molecular Devices, Munich, Germany) as previously described (Bufe et al., supra). Taste active compounds were ordered from Sigma (Sigma-Aldrich, Taufkirchen, Germany). Absinthin, 3β hydroxy dihydro costunolide and 3β hydroxy pelenolide were kindly provided by Giovanni Appendino (Novara, Italy). Test substances were directly dissolved in C1 buffer (130 mM NaCl, 10 mM Na-Hepes, 10 mM Glucose, 5 mM KCl, 2 mM CaCl2, pH 7.4) or in DMSO, respectively. DMSO stocks were further diluted in C1 buffer not exceeding a final DMSO concentration of 1% on the cells. For the investigation of antagonistic effects, test substances were premixed. Agonists were applied at concentrations corresponding to EC90, except where indicated otherwise (Table 2). Data were collected from 3 independent experiments performed in quadruplicates and processed with SigmaPlot (SPSS, Chicago, Ill.). Fluorescence signals after application of test substances were corrected for and normalized to background fluorescence (ΔF/F═(F−F0)/F0), and baseline noise was subtracted. Calculation of dose-response curves was done by nonlinear regression using the function f(y)=((a−d)/(1+(x/EC50)^nH)+d).
(§3) To test 3β hydroxy dihydro costunolide and 3β hydroxy pelenolide for antagonistic or enhancing effects on hTAS2R activation, transfected cells were stimulated with cognate agonist bitter substances at EC90 concentrations (Table 2) without 3β hydroxy dihydro costunolide and 3β hydroxy pelenolide. The cellular responses after application of the agonist alone were set to 100%, responses obtained after coapplication of agonists and 100 μM 3β hydroxy dihydro costunolide or 100 μM 3β hydroxy pelenolide are shown relative to this value (FIG. 4).

hTAS2R44 = molecular target: T2, hTAS2R44 (Homo sapiens, UniProt P59538, L162M); assay: as above; assay type: cell-based; conditions: 100 μM test substance; agonist aristolochic acids 3 μM (EC90); agonist alone = 100%
T2 construct: expressed in transfected cells; host or cells: HEK293T cells stably expressing chimeric Gα16gust44, transient transfection
T2 sequence (P59538 1-309 L162M): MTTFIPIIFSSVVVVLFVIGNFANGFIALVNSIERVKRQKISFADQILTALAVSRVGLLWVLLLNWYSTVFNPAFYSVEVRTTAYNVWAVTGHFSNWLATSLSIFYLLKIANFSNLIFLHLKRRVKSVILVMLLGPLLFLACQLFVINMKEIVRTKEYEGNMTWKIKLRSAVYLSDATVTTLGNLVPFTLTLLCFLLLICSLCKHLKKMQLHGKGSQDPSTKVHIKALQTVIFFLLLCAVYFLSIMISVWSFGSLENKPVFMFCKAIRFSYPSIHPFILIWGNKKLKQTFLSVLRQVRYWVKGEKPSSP
From the text: as §1, §2, §3

SMILES	calcium response of cells expressing any of the other TAS2Rs (other hTAS2 receptors)	agonist-dependent response of hTAS2R7-expressing cells on coapplication (hTAS2R7)	agonist-dependent response of hTAS2R44-expressing cells on coapplication (hTAS2R44)
C/C1=C\C[C@H](O)/C(C)=C/[C@H]2OC(=O)[C@@H](C)C2CC1 (stereo partly drawn) [3β hydroxy dihydro costunolide]	did not respond	increased responses	
C/C1=C\C[C@H](O)[C@@H](C)C[C@H]2OC(=O)[C@@H](C)[C@@H]2CC1 [3β hydroxy pelenolide]			moderately attenuating effect
